# Patent publication US20240300991A1, “NUCLEOSIDE DERIVATIVE HAVING MULTI-TARGET KINASE INHIBITORY ACTIVITY AND PHARMACEUTICAL COMPOSITION FOR PREVENTING AND TREATING CANCER COMPRISING SAME” (FUTURE MEDICINE CO., LTD., priority 2021, published 2024)
# Columns and labels:
# DYRK1A = target: T1, DYRK1A (Homo sapiens, UniProt Q13627); assay: Kinase inhibition test (DNA-tagged kinase, affinity resin, qPCR readout); format: binding; parameters: key: (−) indicates no effect; (+) indicates weak inhibitory activity; (++) indicates a moderate level of inhibitory activity; (+++) indicates strong inhibitory activity; settings: 1 μM of compound
# T1 construct: made in house
# Excerpt: (§1) In order to examine the inhibitory activity of the nucleoside derivatives of the present invention synthesized in the Preparation Examples against kinases, the nucleoside derivatives were confirmed to have inhibitory activity against neurotrophic tyrosine kinase receptor type 1 or tropomyosin receptor kinase A (NTRK1), casein kinase 1 isoform delta (CSNK1D), dual specificity tyrosine-phosphorylation-regulated kinase 1A (DYRK1A), dual specificity tyrosine-phosphorylation-regulated kinase 1B (DYRK1B) and receptor-type tyrosine-protein kinase or fms like tyrosine kinase 3 or cluster of differentiation antigen 135 (CD135) or fetal liver kinase-2 (Flk2) (FLT3).
# (§2) The inhibition measurement method is as follows. Most of the kinases were produced by culturing a phage in which BL21 E. coli was tagged with a kinase at 32° C. until lysis, followed by centrifugation and filtration. Further, the kinases were produced using HEK-293 cells. Thereafter, the kinases were DNA tagged for qPCR. After an affinity resin was prepared by stirring a biotin-tagged substrate onto streptavidin-coated beads for 30 minutes, a non-specifically bound substrate was washed with a buffer (SeaBlock (Pierce), 1% BSA, 0.05% Tween 20, 1 mM DTT).
# (§3) For a kinase test, the kinase, the substrate, the affinity resin, and a test material dissolved in dimethyl sulfoxide were stirred together in a buffer (20% SeaBlock, 0.17×PBS, 0.05% Tween20, and 6 mM DTT) at room temperature for 1 hour. Thereafter, an affinity substrate was washed with a buffer (1×PBS, 0.05% Tween20), and then suspended in an elution buffer (1×PBS, 0.05% Tween20, 0.5 μM non-biotinylated affinity ligand), and the resulting suspension was stirred. The concentration of the kinase was quantified by qPCR.
# NTRK1 = target: T2, NTRK1 (Homo sapiens, UniProt P04629); assay: as above; format: binding; parameters: key: (−) indicates no effect; (+) indicates weak inhibitory activity; (++) indicates a moderate level of inhibitory activity; (+++) indicates strong inhibitory activity; settings: 1 μM of compound
# T2 construct: made in house
# Excerpt: as §1, §2, §3
# DYRK1B = target: T3, DYRK1B (Homo sapiens, UniProt Q9Y463); assay: as above; format: binding; parameters: key: (−) indicates no effect; (+) indicates weak inhibitory activity; (++) indicates a moderate level of inhibitory activity; (+++) indicates strong inhibitory activity; settings: 1 μM of compound
# T3 construct: made in house
# Excerpt: as §1, §2, §3
# CSNK1D = target: T4, CSNK1D (Homo sapiens, UniProt P48730); assay: as above; format: binding; parameters: key: (−) indicates no effect; (+) indicates weak inhibitory activity; (++) indicates a moderate level of inhibitory activity; (+++) indicates strong inhibitory activity; settings: 1 μM of compound
# T4 construct: made in house
# Excerpt: as §1, §2, §3
# [1] = tested on: PC-3 (prostate cancer cells); assay: Inhibitory activity against cancer cells (sulforhodamine B staining); format: cell-based; settings: 3 days, SRB staining
# Description: (§4) In order to examine the anticancer activity of the nucleoside derivatives of the present invention synthesized in the Preparation Examples, the ICso of each of A549 (lung cancer cells), HCT116 (colon cancer cells), MDA-MB-231 (breast cancer cells), SK-Hep-1 (liver cancer cells), SNU638 (stomach cancer cells) and PC-3 (prostate cancer cells) against cancer cells was measured.
# (§5) The test method is as follows. Cells were allowed to stand for 1 day and set as a control on day 0. Further, after a test material was added to the cells, the cells were allowed to stand for 3 days. Thereafter, the cells were stained with 1% acetic acid and 0.4% sulforhodamine B. The stained cells were dried and dissolved in 10 mM Tris (pH 10.0). Absorbance was measured at 515 nm, and the degree of cell division was determined using the following equation. After calculation as Cell division (%)=(average absorbancetest material−average absorbanceday 0)/(average absorbance control-average absorbanceday 0)×100, the degree of cell division was calculated through a non-linear regression analysis using Table Curve 2D v5.01 (Systat Software Inc., San Jose, CA, USA).
# [2] = tested on: SK-Hep-1 (liver cancer cells); assay: as above; format: cell-based; settings: 3 days, SRB staining
# Description: as §4, §5
# [3] = tested on: MDA-MB-231 (breast cancer cells); assay: as above; format: cell-based; settings: 3 days, SRB staining
# Description: as §4, §5
# [4] = tested on: SNU638 (stomach cancer cells); assay: as above; format: cell-based; settings: 3 days, SRB staining
# Description: as §4, §5
# [5] = tested on: HCT116 (colon cancer cells); assay: as above; format: cell-based; settings: 3 days, SRB staining
# Description: as §4, §5
# A549 (lung cancer cells) = assay: as above; format: cell-based; settings: 3 days, SRB staining
# Description: as §4, §5
# T3 sequence (Q9Y463 whole entry): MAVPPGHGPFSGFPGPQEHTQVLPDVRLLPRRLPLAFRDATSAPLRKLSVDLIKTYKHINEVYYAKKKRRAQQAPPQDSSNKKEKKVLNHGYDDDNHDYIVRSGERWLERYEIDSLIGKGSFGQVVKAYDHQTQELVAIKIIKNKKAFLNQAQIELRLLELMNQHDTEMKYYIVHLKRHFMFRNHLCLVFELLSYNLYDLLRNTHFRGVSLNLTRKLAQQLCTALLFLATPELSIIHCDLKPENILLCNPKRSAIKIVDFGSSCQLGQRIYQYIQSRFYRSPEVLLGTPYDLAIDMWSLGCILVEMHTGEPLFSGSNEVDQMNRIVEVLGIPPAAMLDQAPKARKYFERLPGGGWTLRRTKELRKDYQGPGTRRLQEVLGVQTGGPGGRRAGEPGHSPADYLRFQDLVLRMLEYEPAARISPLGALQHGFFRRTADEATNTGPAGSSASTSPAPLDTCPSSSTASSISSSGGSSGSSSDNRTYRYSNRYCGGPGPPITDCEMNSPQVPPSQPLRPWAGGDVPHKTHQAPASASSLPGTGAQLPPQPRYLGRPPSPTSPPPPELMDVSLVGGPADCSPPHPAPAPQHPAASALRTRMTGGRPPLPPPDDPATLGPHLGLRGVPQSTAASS
# T4 sequence (P48730 whole entry): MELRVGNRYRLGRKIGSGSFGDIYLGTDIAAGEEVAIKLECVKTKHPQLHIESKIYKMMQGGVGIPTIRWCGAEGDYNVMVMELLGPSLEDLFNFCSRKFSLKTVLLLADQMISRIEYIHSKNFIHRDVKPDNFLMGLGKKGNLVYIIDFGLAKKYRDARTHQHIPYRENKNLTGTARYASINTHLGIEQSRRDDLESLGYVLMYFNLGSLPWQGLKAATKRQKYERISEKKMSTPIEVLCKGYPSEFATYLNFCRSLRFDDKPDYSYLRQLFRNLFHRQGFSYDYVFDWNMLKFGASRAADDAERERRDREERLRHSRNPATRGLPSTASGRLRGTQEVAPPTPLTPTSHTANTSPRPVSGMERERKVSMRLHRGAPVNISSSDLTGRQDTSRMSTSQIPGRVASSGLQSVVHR
# T2 sequence (P04629 33-796): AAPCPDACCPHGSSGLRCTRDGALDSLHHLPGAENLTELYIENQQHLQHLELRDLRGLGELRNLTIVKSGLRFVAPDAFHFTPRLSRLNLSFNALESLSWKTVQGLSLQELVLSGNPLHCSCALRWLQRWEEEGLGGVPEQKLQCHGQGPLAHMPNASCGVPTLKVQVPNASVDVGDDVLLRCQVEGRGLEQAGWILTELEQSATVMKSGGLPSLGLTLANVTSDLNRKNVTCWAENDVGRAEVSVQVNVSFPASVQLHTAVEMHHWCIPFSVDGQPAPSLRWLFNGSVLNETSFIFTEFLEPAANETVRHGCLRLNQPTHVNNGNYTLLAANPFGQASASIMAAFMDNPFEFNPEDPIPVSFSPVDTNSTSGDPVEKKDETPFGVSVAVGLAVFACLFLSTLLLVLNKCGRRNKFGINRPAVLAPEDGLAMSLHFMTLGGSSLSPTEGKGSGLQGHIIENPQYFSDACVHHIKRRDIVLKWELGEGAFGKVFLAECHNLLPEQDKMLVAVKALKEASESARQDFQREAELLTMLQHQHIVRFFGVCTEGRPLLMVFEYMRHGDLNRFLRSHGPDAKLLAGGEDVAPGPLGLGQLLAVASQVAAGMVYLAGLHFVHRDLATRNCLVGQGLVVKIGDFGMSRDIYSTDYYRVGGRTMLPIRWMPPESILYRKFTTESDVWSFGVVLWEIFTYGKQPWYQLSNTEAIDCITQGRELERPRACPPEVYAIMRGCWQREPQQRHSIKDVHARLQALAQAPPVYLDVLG
compound,measurement,setting,value
NC(=O)NC[C@H]1S[C@@H](n2cc(C(N)=O)c3c(N)ncnc32)[C@H](O)[C@@H]1O [Compound 11aiii],DYRK1A inhibitory activity,DYRK1A,++
same,NTRK1 inhibitory activity,NTRK1,++
same,DYRK1B inhibitory activity,DYRK1B,++
same,CSNK1D inhibitory activity,CSNK1D,++
same,IC50,[1],2810 nM
same,IC50,[2],7340 nM
same,IC50,[3],2460 nM
same,IC50,[4],5570 nM
same,IC50,[5],1360 nM
same,IC50,A549 (lung cancer cells),4530 nM
"Nc1ncnc2c1c(-c1cccs1)cn2[C@@H]1S[C@H](CO)[C@@H](O)[C@H]1O [Compound 1b, (2R,3R,4S,5R)-2-(4-amino-5-(thiophen-2-yl)-7H-pyrrolo[2,3-d]pyrimidin-7-yl)-5-(hydroxymethyl)tetrahydrothiophene-3,4-diol]",DYRK1A inhibitory activity,DYRK1A,++
same,NTRK1 inhibitory activity,NTRK1,+++
same,DYRK1B inhibitory activity,DYRK1B,++
same,CSNK1D inhibitory activity,CSNK1D,+++
same,IC50,[1]; 72 h,2480 nM
Nc1ncnc2c1c(-c1ccccc1)cn2[C@@H]1SC[C@@H](O)[C@H]1O [Compound 13d],DYRK1A inhibitory activity,DYRK1A,++
same,NTRK1 inhibitory activity,NTRK1,++
same,DYRK1B inhibitory activity,DYRK1B,++
same,CSNK1D inhibitory activity,CSNK1D,++
same,IC50,[1],9900 nM
same,IC50,[2],7810 nM
same,IC50,[3],5930 nM
same,IC50,[4],5660 nM
same,IC50,[5],4310 nM
same,IC50,A549 (lung cancer cells),6830 nM
CC(C)(C)C#Cc1cn([C@@H]2S[C@H](CO)[C@@H](O)[C@H]2O)c2ncnc(N)c12 [Compound 4c],DYRK1A inhibitory activity,DYRK1A,−
same,NTRK1 inhibitory activity,NTRK1,+
same,DYRK1B inhibitory activity,DYRK1B,−
same,CSNK1D inhibitory activity,CSNK1D,+
same,IC50,[1],> 50000 nM
same,IC50,[2],> 50000 nM
same,IC50,[3],29600 nM
same,IC50,[4],> 50000 nM
same,IC50,[5],> 50000 nM
same,IC50,A549 (lung cancer cells),> 50000 nM
Nc1ncnc2c1c(-c1ccco1)cn2[C@@H]1SC[C@@H](O)[C@H]1O [Compound 13b],DYRK1A inhibitory activity,DYRK1A,+++
same,NTRK1 inhibitory activity,NTRK1,++
same,DYRK1B inhibitory activity,DYRK1B,+++
same,CSNK1D inhibitory activity,CSNK1D,++
same,IC50,[1],1740 nM
same,IC50,[2],640 nM
same,IC50,[3],1320 nM
same,IC50,[4],1310 nM
same,IC50,[5],860 nM
same,IC50,A549 (lung cancer cells),960 nM
C#Cc1cn([C@@H]2SC[C@@H](O)[C@H]2O)c2ncnc(N)c12 [Compound 13a],DYRK1A inhibitory activity,DYRK1A,++
same,NTRK1 inhibitory activity,NTRK1,++
same,DYRK1B inhibitory activity,DYRK1B,++
same,CSNK1D inhibitory activity,CSNK1D,++
same,IC50,[1],1390 nM
same,IC50,[2],1270 nM
same,IC50,[3],1150 nM
same,IC50,[4],1200 nM
same,IC50,[5],850 nM
same,IC50,A549 (lung cancer cells),590 nM
"C#Cc1cn([C@@H]2SC(=C)[C@@H](O)[C@H]2O)c2ncnc(N)c12 [Compound 12b, (2R,3R,4S)-2-(4-amino-5-ethynyl-7H-pyrrolo[2,3-d]pyrimidin-7-yl)-5-methylenetetrahydrothiophene-3,4-diol]",DYRK1A inhibitory activity,DYRK1A,+++
same,NTRK1 inhibitory activity,NTRK1,+++
same,DYRK1B inhibitory activity,DYRK1B,+++
same,CSNK1D inhibitory activity,CSNK1D,+++
same,IC50,"[2]; Homo sapiens, SK-HEP1, 72 h",310 nM
same,IC50,"[3]; Homo sapiens, 72 h",500 nM
same,IC50,"[4]; Homo sapiens, SNU-638, 72 h",620 nM
same,IC50,"[5]; Homo sapiens, HCT-116, 72 h",730 nM
same,IC50,"A549 (lung cancer cells); Homo sapiens, 72 h",250 nM
"C#Cc1cn([C@@H]2S[C@H](CN3CCOCC3)[C@@H](O)[C@H]2O)c2ncnc(N)c12 [Compound 12a, (2R,3R,4S,5R)-2-(4-amino-5-ethynyl-7H-pyrrolo[2,3-d]pyrimidin-7-yl)-5-(morpholinomethyl)tetrahydrothiophene-3,4-diol]",IC50,[1]; 72 h,13200 nM
same,IC50,"[2]; Homo sapiens, SK-HEP1, 72 h",10200 nM
same,IC50,"[3]; Homo sapiens, 72 h",11200 nM
same,IC50,"[4]; Homo sapiens, SNU-638, 72 h",9700 nM
same,IC50,"[5]; Homo sapiens, HCT-116, 72 h",9720 nM
same,IC50,"A549 (lung cancer cells); Homo sapiens, 72 h",11700 nM
"Nc1ncnc2c1c(-c1ccco1)cn2[C@@H]1S[C@H](CO)[C@@H](O)[C@H]1O [Compound 1a, (2R,3R,4S,5R)-2-(4-amino-5-(furan-2-yl)-7H-pyrrolo[2,3-d]pyrimidin-7-yl)-5-(hydroxymethyl)tetrahydrothiophene-3,4-diol]",DYRK1A inhibitory activity,DYRK1A,+++
same,NTRK1 inhibitory activity,NTRK1,+++
same,DYRK1B inhibitory activity,DYRK1B,+++
same,CSNK1D inhibitory activity,CSNK1D,++
same,IC50,[1]; 72 h,2460 nM
